From US7375083B2, “Pharmaceutical compositions for prevention of overdose or abuse” (Shire LLC, priority 2003, dated 2008)

What was measured:
[1] = Intranasal bioavailability in rats, plasma d-amphetamine by ELISA; details: rat, 3 mg/kg
Anesthetized Dog = assay: Cardiovascular effects after intravenous bolus injection in anesthetized dogs
[2] = molecular target: T1, human recombinant dopamine transport binding sites (Homo sapiens, UniProt Q01959); assay: Radioligand binding, dopamine transporter; details: 10^−9 to 10^−5 M
T1 construct: purchased Novascreen, Hanover, Md
T1 sequence (Q01959 whole entry): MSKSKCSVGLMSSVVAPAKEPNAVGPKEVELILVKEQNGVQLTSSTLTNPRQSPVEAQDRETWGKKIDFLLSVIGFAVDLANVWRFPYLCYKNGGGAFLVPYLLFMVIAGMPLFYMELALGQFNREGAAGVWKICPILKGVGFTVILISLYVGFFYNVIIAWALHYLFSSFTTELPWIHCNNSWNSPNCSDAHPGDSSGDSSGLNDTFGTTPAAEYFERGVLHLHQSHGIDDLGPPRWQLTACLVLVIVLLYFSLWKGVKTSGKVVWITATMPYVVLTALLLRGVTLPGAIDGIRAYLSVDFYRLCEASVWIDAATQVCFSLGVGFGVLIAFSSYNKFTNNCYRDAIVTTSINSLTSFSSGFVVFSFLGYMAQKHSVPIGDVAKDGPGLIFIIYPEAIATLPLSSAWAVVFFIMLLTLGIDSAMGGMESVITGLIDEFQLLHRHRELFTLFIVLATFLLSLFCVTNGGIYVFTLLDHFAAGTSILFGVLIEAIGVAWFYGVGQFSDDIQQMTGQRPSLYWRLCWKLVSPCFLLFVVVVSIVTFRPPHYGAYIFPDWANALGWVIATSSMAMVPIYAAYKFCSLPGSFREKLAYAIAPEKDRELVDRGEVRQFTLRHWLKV

Male Sprague-Dawley rats = assay: Locomotor activity after intranasal administration with and without CMC; type: in vivo; details: 1.0 mg/kg
[3] = Intranasal bioavailability in rats, LC/MS/MS; details: male, Sprague-Dawley, rat, plasma, inhaled or intranasal, 3 mg/kg
[4] = Serum and brain tissue levels after oral administration, LC/MS/MS; details: rat, 5 mg/kg d-amphetamine base
[5] = Bolus intravenous bioavailability in rats, LC/MS/MS; details: rat
[6] = molecular target: T2, human recombinant norepinephrine transport binding sites (Homo sapiens, UniProt P23975); assay: Radioligand binding, norepinephrine transporter; details: 10^−9 to 10^−5 M
T2 construct: purchased Novascreen, Hanover, Md
T2 sequence (P23975 whole entry): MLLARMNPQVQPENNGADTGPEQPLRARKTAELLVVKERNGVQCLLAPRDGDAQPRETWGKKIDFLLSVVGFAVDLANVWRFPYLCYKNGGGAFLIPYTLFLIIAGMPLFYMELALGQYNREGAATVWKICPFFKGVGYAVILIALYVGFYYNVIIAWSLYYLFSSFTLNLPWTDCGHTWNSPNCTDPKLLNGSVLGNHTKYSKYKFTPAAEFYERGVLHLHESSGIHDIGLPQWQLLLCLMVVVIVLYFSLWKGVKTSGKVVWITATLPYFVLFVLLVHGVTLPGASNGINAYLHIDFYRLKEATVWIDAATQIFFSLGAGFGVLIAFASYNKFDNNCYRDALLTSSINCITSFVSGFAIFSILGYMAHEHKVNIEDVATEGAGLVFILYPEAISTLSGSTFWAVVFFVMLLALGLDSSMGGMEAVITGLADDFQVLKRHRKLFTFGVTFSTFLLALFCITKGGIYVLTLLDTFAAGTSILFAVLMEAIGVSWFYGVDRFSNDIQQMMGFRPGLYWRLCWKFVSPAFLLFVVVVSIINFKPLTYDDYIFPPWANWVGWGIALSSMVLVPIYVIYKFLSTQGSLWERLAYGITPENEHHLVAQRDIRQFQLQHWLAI

[7] = Kitchen tests: release of amphetamine by water, acid, base and heat; details: heated to boiling for 20-60 minutes

SMILES: CC(Cc1ccccc1)NC(=O)C(N)CCCCN [L-lysine-d-amphetamine, 2,6-diaminohexanoic acid-(1-methyl-2-phenylethyl)-amide]
- Release of d-amphetamine into circulation [1]: did not release any significant amount of d-amphetamine
- DAP % Change from respective Time 0 (Anesthetized Dog; 0.5 mg/kg, TIME 0): 0%
- DAP - diastolic arterial pressure (Anesthetized Dog; 0.5 mg/kg, TIME 0): 51 mmHg
- LVP % Change from respective Time 0 (Anesthetized Dog; 0.5 mg/kg, TIME 0): 0%
- LVP - left ventricular pressure (Anesthetized Dog; 0.5 mg/kg, TIME 0): 86 mmHg
- MAP % Change from respective Time 0 (Anesthetized Dog; 0.5 mg/kg, TIME 0): 0%
- MAP - mean arterial pressure (Anesthetized Dog; 0.5 mg/kg, TIME 0): 64 mmHg
- SAP % Change from respective Time 0 (Anesthetized Dog; 0.5 mg/kg, TIME 0): 0%
- SAP - systolic arterial pressure (Anesthetized Dog; 0.5 mg/kg, TIME 0): 84 mmHg
- DAP % Change from respective Time 0 (Anesthetized Dog; 0.5 mg/kg, TIME 5): 3%
- DAP - diastolic arterial pressure (Anesthetized Dog; 0.5 mg/kg, TIME 5): 52 mmHg
- LVP % Change from respective Time 0 (Anesthetized Dog; 0.5 mg/kg, TIME 5): 2%
- LVP - left ventricular pressure (Anesthetized Dog; 0.5 mg/kg, TIME 5): 87 mmHg
- MAP % Change from respective Time 0 (Anesthetized Dog; 0.5 mg/kg, TIME 5): 3%
- MAP - mean arterial pressure (Anesthetized Dog; 0.5 mg/kg, TIME 5): 66 mmHg
- SAP % Change from respective Time 0 (Anesthetized Dog; 0.5 mg/kg, TIME 5): 4%
- SAP - systolic arterial pressure (Anesthetized Dog; 0.5 mg/kg, TIME 5): 87 mmHg
- DAP % Change from respective Time 0 (Anesthetized Dog; 0.5 mg/kg, TIME 15): 1%
- DAP - diastolic arterial pressure (Anesthetized Dog; 0.5 mg/kg, TIME 15): 51 mmHg
- LVP % Change from respective Time 0 (Anesthetized Dog; 0.5 mg/kg, TIME 15): 11%
- LVP - left ventricular pressure (Anesthetized Dog; 0.5 mg/kg, TIME 15): 95 mmHg
- MAP % Change from respective Time 0 (Anesthetized Dog; 0.5 mg/kg, TIME 15): 5%
- MAP - mean arterial pressure (Anesthetized Dog; 0.5 mg/kg, TIME 15): 67 mmHg
- SAP % Change from respective Time 0 (Anesthetized Dog; 0.5 mg/kg, TIME 15): 11%
- SAP - systolic arterial pressure (Anesthetized Dog; 0.5 mg/kg, TIME 15): 93 mmHg
- DAP % Change from respective Time 0 (Anesthetized Dog; 0.5 mg/kg, TIME 25): 8%
- DAP - diastolic arterial pressure (Anesthetized Dog; 0.5 mg/kg, TIME 25): 55 mmHg
- LVP % Change from respective Time 0 (Anesthetized Dog; 0.5 mg/kg, TIME 25): 22%
- LVP - left ventricular pressure (Anesthetized Dog; 0.5 mg/kg, TIME 25): 105 mmHg
- MAP % Change from respective Time 0 (Anesthetized Dog; 0.5 mg/kg, TIME 25): 15%
- MAP - mean arterial pressure (Anesthetized Dog; 0.5 mg/kg, TIME 25): 73 mmHg
- SAP % Change from respective Time 0 (Anesthetized Dog; 0.5 mg/kg, TIME 25): 25%
- DAP % Change from respective Time 0 (Anesthetized Dog; 0.5 mg/kg, TIME 30): 14%
- DAP - diastolic arterial pressure (Anesthetized Dog; 0.5 mg/kg, TIME 30): 58 mmHg
- LVP % Change from respective Time 0 (Anesthetized Dog; 0.5 mg/kg, TIME 30): 26%
- MAP % Change from respective Time 0 (Anesthetized Dog; 0.5 mg/kg, TIME 30): 21%
- MAP - mean arterial pressure (Anesthetized Dog; 0.5 mg/kg, TIME 30): 77 mmHg
- SAP % Change from respective Time 0 (Anesthetized Dog; 0.5 mg/kg, TIME 30): 28%
- DAP % Change from respective Time 0 (Anesthetized Dog; 1.0 mg/kg, TIME 0): 0%
- DAP - diastolic arterial pressure (Anesthetized Dog; 1.0 mg/kg, TIME 0): 55 mmHg
- LVP % Change from respective Time 0 (Anesthetized Dog; 1.0 mg/kg, TIME 0): 0%
- MAP % Change from respective Time 0 (Anesthetized Dog; 1.0 mg/kg, TIME 0): 0%
- MAP - mean arterial pressure (Anesthetized Dog; 1.0 mg/kg, TIME 0): 74 mmHg
- SAP % Change from respective Time 0 (Anesthetized Dog; 1.0 mg/kg, TIME 0): 0%
- SAP - systolic arterial pressure (Anesthetized Dog; 1.0 mg/kg, TIME 0): 105 mmHg
- DAP % Change from respective Time 0 (Anesthetized Dog; 1.0 mg/kg, TIME 5): 15%
- DAP - diastolic arterial pressure (Anesthetized Dog; 1.0 mg/kg, TIME 5): 63 mmHg
- LVP % Change from respective Time 0 (Anesthetized Dog; 1.0 mg/kg, TIME 5): 11%
- LVP - left ventricular pressure (Anesthetized Dog; 1.0 mg/kg, TIME 5): 120 mmHg
- MAP % Change from respective Time 0 (Anesthetized Dog; 1.0 mg/kg, TIME 5): 15%
- MAP - mean arterial pressure (Anesthetized Dog; 1.0 mg/kg, TIME 5): 85 mmHg
- SAP % Change from respective Time 0 (Anesthetized Dog; 1.0 mg/kg, TIME 5): 15%
- DAP % Change from respective Time 0 (Anesthetized Dog; 1.0 mg/kg, TIME 15): 33%
- DAP - diastolic arterial pressure (Anesthetized Dog; 1.0 mg/kg, TIME 15): 73 mmHg
- LVP % Change from respective Time 0 (Anesthetized Dog; 1.0 mg/kg, TIME 15): 29%
- LVP - left ventricular pressure (Anesthetized Dog; 1.0 mg/kg, TIME 15): 140 mmHg
- MAP % Change from respective Time 0 (Anesthetized Dog; 1.0 mg/kg, TIME 15): 35%
- MAP - mean arterial pressure (Anesthetized Dog; 1.0 mg/kg, TIME 15): 100 mmHg
- SAP % Change from respective Time 0 (Anesthetized Dog; 1.0 mg/kg, TIME 15): 35%
- DAP % Change from respective Time 0 (Anesthetized Dog; 1.0 mg/kg, TIME 25): 75%
- DAP - diastolic arterial pressure (Anesthetized Dog; 1.0 mg/kg, TIME 25): 97 mmHg
- LVP % Change from respective Time 0 (Anesthetized Dog; 1.0 mg/kg, TIME 25): 50%
- MAP % Change from respective Time 0 (Anesthetized Dog; 1.0 mg/kg, TIME 25): 68%
- SAP % Change from respective Time 0 (Anesthetized Dog; 1.0 mg/kg, TIME 25): 55%
- DAP % Change from respective Time 0 (Anesthetized Dog; 1.0 mg/kg, TIME 30): 32%
- DAP - diastolic arterial pressure (Anesthetized Dog; 1.0 mg/kg, TIME 30): 73 mmHg
- LVP % Change from respective Time 0 (Anesthetized Dog; 1.0 mg/kg, TIME 30): 33%
- MAP % Change from respective Time 0 (Anesthetized Dog; 1.0 mg/kg, TIME 30): 32%
- MAP - mean arterial pressure (Anesthetized Dog; 1.0 mg/kg, TIME 30): 98 mmHg
- SAP % Change from respective Time 0 (Anesthetized Dog; 1.0 mg/kg, TIME 30): 28%
- DAP % Change from respective Time 0 (Anesthetized Dog; 5.0 mg/kg, TIME 0): 0%
- DAP - diastolic arterial pressure (Anesthetized Dog; 5.0 mg/kg, TIME 0): 71 mmHg
- LVP % Change from respective Time 0 (Anesthetized Dog; 5.0 mg/kg, TIME 0): 0%
- MAP % Change from respective Time 0 (Anesthetized Dog; 5.0 mg/kg, TIME 0): 0%
- MAP - mean arterial pressure (Anesthetized Dog; 5.0 mg/kg, TIME 0): 95 mmHg
- SAP % Change from respective Time 0 (Anesthetized Dog; 5.0 mg/kg, TIME 0): 0%
- SAP - systolic arterial pressure (Anesthetized Dog; 5.0 mg/kg, TIME 0): 132 mmHg
- DAP % Change from respective Time 0 (Anesthetized Dog; 5.0 mg/kg, TIME 5): 0%
- DAP - diastolic arterial pressure (Anesthetized Dog; 5.0 mg/kg, TIME 5): 71 mmHg
- LVP % Change from respective Time 0 (Anesthetized Dog; 5.0 mg/kg, TIME 5): 5%
- MAP % Change from respective Time 0 (Anesthetized Dog; 5.0 mg/kg, TIME 5): 4%
- MAP - mean arterial pressure (Anesthetized Dog; 5.0 mg/kg, TIME 5): 99 mmHg
- SAP % Change from respective Time 0 (Anesthetized Dog; 5.0 mg/kg, TIME 5): 7%
- DAP % Change from respective Time 0 (Anesthetized Dog; 5.0 mg/kg, TIME 15): 39%
- DAP - diastolic arterial pressure (Anesthetized Dog; 5.0 mg/kg, TIME 15): 98 mmHg
- LVP % Change from respective Time 0 (Anesthetized Dog; 5.0 mg/kg, TIME 15): 28%
- MAP % Change from respective Time 0 (Anesthetized Dog; 5.0 mg/kg, TIME 15): 37%
- MAP - mean arterial pressure (Anesthetized Dog; 5.0 mg/kg, TIME 15): 130 mmHg
- SAP % Change from respective Time 0 (Anesthetized Dog; 5.0 mg/kg, TIME 15): 33%
- DAP % Change from respective Time 0 (Anesthetized Dog; 5.0 mg/kg, TIME 25): −3%
- DAP - diastolic arterial pressure (Anesthetized Dog; 5.0 mg/kg, TIME 25): 69 mmHg
- LVP % Change from respective Time 0 (Anesthetized Dog; 5.0 mg/kg, TIME 25): 11%
- LVP - left ventricular pressure (Anesthetized Dog; 5.0 mg/kg, TIME 25): 160 mmHg
- MAP % Change from respective Time 0 (Anesthetized Dog; 5.0 mg/kg, TIME 25): 1%
- MAP - mean arterial pressure (Anesthetized Dog; 5.0 mg/kg, TIME 25): 96 mmHg
- SAP % Change from respective Time 0 (Anesthetized Dog; 5.0 mg/kg, TIME 25): −5%
- DAP % Change from respective Time 0 (Anesthetized Dog; 5.0 mg/kg, TIME 30): −1%
- DAP - diastolic arterial pressure (Anesthetized Dog; 5.0 mg/kg, TIME 30): 70 mmHg
- LVP % Change from respective Time 0 (Anesthetized Dog; 5.0 mg/kg, TIME 30): 13%
- MAP % Change from respective Time 0 (Anesthetized Dog; 5.0 mg/kg, TIME 30): 4%
- MAP - mean arterial pressure (Anesthetized Dog; 5.0 mg/kg, TIME 30): 99 mmHg
- SAP % Change from respective Time 0 (Anesthetized Dog; 5.0 mg/kg, TIME 30): 0%
- SAP - systolic arterial pressure (Anesthetized Dog; 5.0 mg/kg, TIME 30): 132 mmHg
- Effect on mean blood pressure after the first (lowest) dose (Anesthetized Dog; dog, IV bolus, 0.202 mg/kg d-amphetamine, equimolar to 0.5 mg/kg L-lysine-d-amphetamine): very little change in mean BP
- Increase of mean blood pressure (Anesthetized Dog; dog, IV bolus, approximately 30 minutes after injection): 20-50%
- Specific binding [2]: did not bind
- Percent d-amphetamine (Male Sprague-Dawley rats; activity above baseline relative to d-amphetamine): 35%
- Increase in activity over baseline compared to d-amphetamine dosed animals (Male Sprague-Dawley rats; rat, with CMC): 9%
- AUC(0-inf) [3]: 9140 ng·h/mL
- AUC(0-t) [3]: 2580 ng·h/mL
- Cmax [3]: 3350 ng/mL
- Tmax [3]: 15 min
- Intact conjugate in serum [4]: present in appreciable amounts in serum
- Tmax ([5]; male, Sprague-Dawley, plasma, iv, […]): 4.98 min
- Cmax of d-amphetamine relative to d-amphetamine ([5]; bolus intravenous): about one-fourth
- Specific binding [6]: did not bind
- amphetamine detected after treatment: Baking Powder [7]: 0%
- amphetamine detected after treatment: Baking Soda [7]: 0%
- amphetamine detected after treatment: Tap Water [7]: 0%
- amphetamine detected after treatment: Vinegar [7]: 0%
